Measurements reported in patent US20090048314A1, “TREATMENT OF DUCHENNE MUSCULAR DYSTROPHY” (priority 2007, published 2009).

Key:
[1] = Slurrying experiment (single form) in methanol, thermodynamic stability; assay type: physicochemical; conditions: for polymorphic form after slurrying (XRPD): slurried in methanol for four days at 25° C.
Procedure: The stability of the various solid forms of 5-(ethylsulfonyl)-2-(naphthalen-2-yl)benzo[d]oxazole was investigated by stirring samples of each and mixtures thereof in methanol for defined time periods.
Approximately 10 mg of two polymorphic forms was slurried in 0.25 ml of methanol for 4 days at either room temperature or 60° C. The supernatant liquor was then removed and the resulting solid was dried under vacuum for 24 hrs.
Approximately 2 mg of sample was gently compressed on the XRPD zero back ground single obliquely cut silica sample holder. The sample was then loaded into a Philips X-Pert MPD diffractometer and analysed using the following experimental conditions:
Tube anode: Cu Generator tension: 40 kV Tube current: 40 mA Wavelength alpha1: 1.5406 A Wavelength alpha2: 1.5444 A Start angle [2θ]: 5 End angle [2θ]: 35 Time per step: 2.5 seconds Scan step size: 0.06

[2] = test system: Utrophin A promoter; experiment: Luciferase reporter assay (murine H2K cells); assay type: cell-based, mouse; conditions: H2K/mdx/Utro A reporter cells, final concentration 10 μM, 48 hrs
Procedure: The cell line used for the screen is an immortalized mdx mouse H2K cell line that has been stably transfected with a plasmid containing 5 kb fragment of the Utrophin A promoter including the first untranslated exon linked to a luciferase reporter gene (see FIG. 26). Under conditions of low temperature and interferon containing media, the cells remain as myoblasts. These are plated into 96 well plates and cultured in the presence of compound for three days. The level of luciferase is then determined by cell lysis and reading of the light output from the expressed luciferase gene utilising a plate luminometer. The H2K/mdx/Utro A reporter cell line was passaged twice a week until ≦30% confluent. The cells were grown at 33° C. in the presence of 10% CO2 To remove the myoblasts for platting, they were incubated with Trypsin/EDTA until the monolayer started to detach. The H2K/mdx/Utro A reporter cell line cells were plated out into 96 well plates (Falcon 353296, white opaque) at a density of approximately 5000 cells/well in 190 μl normal growth medium. The plates were then incubated at 33° C. in the presence of 10% CO2 for 24 hrs. […] The plates were then incubated for a further 48 hrs Cells were then lysed in situ following the manufacture's protocols (Promega Steady-Glo Luciferase Assay System (E2520). Then counted for 10 seconds using a plate luminometer (Victor1420).

Row | SMILES | polymorphic form after slurrying (XRPD) [1] | polymorphic form after slurrying (XRPD) ([1]; listed as Polymorphic form 2) | Biological activity in luciferase reporter assay relative to control [2] | polymorphic form after slurrying (XRPD) ([1]; listed as Polymorphic form 1) | stability compared with previously known forms ([1]; stirring in methanol)
1 | CCS(=O)(=O)c1ccc2oc(-c3ccc4ccccc4c3)nc2c1 [polymorphic form 2, 5-(ethylsulfonyl)-2-(naphthalen-2-yl)benzo[d]oxazole] | converted into polymorphic form 1 | polymorphic form 1 has converted to polymorphic form 2 |  |  | 
2 | CCS(=O)(=O)c1ccc2oc(-c3ccc4ccccc4c3)nc2c1 [5-(ethylsulfonyl)-2-(naphthalen-2-yl)benzo[d]oxazole] |  |  | +++ (Between 301% and 400% relative to control) |  | 
3 | CCS(=O)(=O)c1ccc2oc(-c3ccc4ccccc4c3)nc2c1 [polymorphic form 1, 5-(ethylsulfonyl)-2-(naphthalen-2-yl)benzo[d]oxazole] | retains its structure |  |  | no change in the polymorphic form | increased stability
